Experimental data: patent US20020039780A1, “Salicyclic acid inducible genes and promoters” (priority 1998, published 2002)

Experiments:
Type in all cases: cell-based
[1] = tested on: C18-1/EREBP1; assay: Northern analysis of mRNA accumulation in cultured tobacco cells
Method: (§1) FIG. 2. Time course of SA-induced gene expression. Northern analysis of representative differential display genes following treatment of cultured tobacco cells with SA for the indicated time (in hours, except lanes 2-4, which refer to 10, 20, and 30 min.). Twenty micrograms of total RNA was loaded per lane. Blots were hybridized with ddPCR fragments indicated at right or with the β-ATPase gene as a loading control probe. Autoradiogram exposure times were optimized for each gene. […] Labels on left indicate response class.
(§2) FIG. 4. Specificity of induction among SA analogs and other signalling compounds. Northern analysis of representative differential display genes following treatment of tobacco cells with 100 μM or 1 mM (left and right side of triangles, respectively) of the following chemicals for 2-2.5 hr: salicylic acid (SA, lanes 4 and 5), acetylSA (ASA, lanes 6 and 7), benzoic acid (BA, lanes 8 and 9), 4-hydroxybenzoic (4HBA, lanes 10 and 11), thiamine (thia, lanes 12 and 13), methyljasmonate (MJ, lanes 14 and 15), abscisic acid (ABA, lanes 16 and 17), or 2,4-dichlorophenoxyacetic acid (2,4-D, lanes 18 and 19). Control treatments are H2O (H, lane 1), 1% ethanol (E, solvent concentration in MJ treatments, lane 2), or 1% DMSO (D, solvent concentration in 2,4D treatments, lane 3). Blots were hybridized with ddPCR fragments indicated at right or with the β-ATPase geneas a loading control probe. Autoradiogram exposure times were optimized for each gene. […] Labels on left indicate response class.
(§3) FIG. 5. Dose response of C18-1 and G8-1 to a range of chemicals. Northern analysis of tobacco cell cultures with eight concentrations of SA, ASA, BA, 4HBA, Thia, MJ, ABA, 2,4-D, or H2O for 2-2.5 hr. Concentrations were 0.1, 1, 3, 10, 30, 100, 300 μM or […], as indicated.
(§4) FIG. 6. […] Graphic representation of mRNA accumulation of G8-1 ( ), C18se -1 (♦), and IEGT (o) in response to a 2-2.5 hr incubation of cultured tobacco cells with a range of SA concentrations. RNA gel blots were quantitated by phosphorimaging analysis and normalized relative to the β-ATPase gene loading control (not shown).
(§5) Differential display technology (Liang, P. and Pardee, A. B., Science 257: 967-971, 1992) was used to identify genes activated in the presence of SA, CHX and both. Therefore the absence or presence of SA, induction at 3 timepoints of SA-treatment, 2 different concentrations of SA and the effect of addition of CHX were measured. Seven treatments in total were performed. Treatment of tobacco BY-2 suspension cells and leaves and differential display PCR reactions were performed as described (Horvath and Chua (1996), Plant Mol. Biol. 31, 1061-1072).
The kinetics of induction were examined in detail through time course experiments for representative clones of each class (FIG. 2).
The specificity for induction by SA was tested by treating tobacco cells with a range of SA analogs and plant signalling compounds at 0.1 and 1 mM for approximately 2.5 h. […] Several genes, including those for proteinase inhibitors and lipoxygenase (Hildmann, T. et al., Plant Cell 4: 1157-1170, 1992; Melan, M. A. et al., Plant Physiol. 101: 441-450, 1993; Xu, D. et al., Plant Mol. Biol. 22: 573-588, 1993) are known to be under dual regulation by MJ and ABA.
A dose-response curve was made for SA. Therefore tobacco cells were treated with SA in a range of concentrations from 0.1 μM to 2 mM.

[2] = tested on: G8-1; assay: as above
Method: FIG. 1. […] Northern analysis of genes identified by differential display. Gel-purified DNA fragments produced by ddPCR were either used directly for random-primed labeling and probing of Northern filters (e.g. C7-1, C6-1, and G9-2) or first subcloned and released by restriction digest. Each lane contains 1 μg of poly(A) mRNA from cultured tobacco cells treated with (1) H2O, 4 hr; (2) 200 μM SA, 4 hr; (3) 71 μM CHX, 5 hr; (4) 71 μM CHX, 5 hr plus 200 μM SA after 1 hr (4 hr total); (5) 20 μM SA, 2 hr; (7) 200 μM SA, 8 hr.
as §1, §2, §3, §4, §5
The specificity for induction by SA was tested by treating tobacco cells with a range of SA analogs and plant signalling compounds at 0.1 and 1 mM for approximately 2.5 h.

[3] = tested on: Class I genes; assay: Northern analysis of poly(A) mRNA from treated tobacco cells; settings: SA at 2, 4 or 8 h; 71 μM CHX 5 hrs; CHX + 200 μM SA
Method: (§6) FIG. 1. Four classes of SA-induced early genes. Northern analysis of genes identified by differential display. Gel-purified DNA fragments produced by ddPCR were either used directly for random-primed labeling and probing of Northern filters (e.g. C7-1, C6-1, and G9-2) or first subcloned and released by restriction digest. Each lane contains 1 μg of poly(A) mRNA from cultured tobacco cells treated with (1) H2O, 4 hr; (2) 200 μM SA, 4 hr; (3) 71 μM CHX, 5 hr; (4) 71 μM CHX, 5 hr plus 200 μM SA after 1 hr (4 hr total); (5) 20 μM SA, 2 hr; (7) 200 μM SA, 8 hr. One blot was sequentially hybridized with the G1-1 fragment and the β-ATPase gene as a loading control probe. response classes (I-IV) are indicated on the left of the autoradiograms.
as §5
(§7) Fiftytwo were recovered for testing on poly(A)+Northern blots loaded with mRNA derived from cells from each of the treatments.

[4] = tested on: class II genes; assay: as above; settings: SA at 2, 4, 8 h; 71 μM CHX 5 hrs; CHX + 200 μM SA
Method: as §6, §5, §7

[5] = tested on: class IV genes (G3-2 and C14-1b); assay: as above; settings: SA at 2, 4, 8 h; 71 μM CHX 5 hrs
Method: as §6, §5, §7

[6] = tested on: C18-1/EREBP1; assay: Northern analysis of mRNA accumulation in cultured tobacco cells; settings: SA time course, full length cDNA probe
[7] = 0.1 and 1 mM, approximately 2.5 h

EC50 ([1]; Nicotiana tabacum, tobacco cells, SA 0.1 μM to 2 mM, 2-2.5 hr, read-out: concentration of SA required for half of the maximum level of C18-1/EREBP1 expression): 100 to 150 µM
Compound: O=C(O)c1ccccc1O [SA, salicylic acid]
C18-1/EREBP1 induction at 0.1 mM versus 1 mM [1, 7]: greater induction at 1mM
response zone of C18-1/EREBP1 to SA concentration ([1]; SA 0.1 μM to 2 mM): narrow response zone
time of decay of C18-1/EREBP1 mRNA to background levels ([1]; SA time course): ≤ 4.5 h
time of peak C18-1/EREBP1 mRNA ([1]; SA time course): 2 h
G8-1 mRNA levels at 20 μM SA ([2]; 20 μM SA): comparable to those at 200 μM
G8-1 induction at 0.1 mM versus 1 mM [2, 7]: equal or greater induction at 0.1 mM versus 1 mM
mRNA induction of G8-1 (class III) ([2]; SA at 2, 4, 8 h, 71 μM CHX 5 hrs): rapid mRNA induction
time at which G8-1 is first detected ([2]; SA time course): 30 to 60 min
time at which G8-1 reaches a plateau ([2]; SA time course): 2 to 2.5 h
time for which G8-1 plateau is maintained ([2]; SA time course): at least 12 h
mRNA induction of Class I genes [3]: little if any detectable mRNA accumulation
mRNA induction of class II genes [4]: rapid and transient
mRNA induction of class IV genes [5]: rapid and sustained induction
time at which increase in C18-1/EREBP1 mRNA is first apparent [6]: 10 min
